Data: patent publication US20050130237A1, “High throughput screening method for compounds with non-, pro-, or anti-apoptotic or proliferative or necrotic activity” (priority 2002, published 2005)
Peptide text beside a SMILES is read from it. * marks the point of attachment. Cbz = O=C(OCc1ccccc1)*; CH2F = FC*

How the values were obtained:
Type in all cases: cell-based, human
[1] = system: HeLa cells; assay: Primary screening: overall EGFP relative fluorescence activity per well, fluorescence microplate reader, 96-well plates; details: values under 0.8 = pro-apoptotic and/or necrotic
Excerpt: A representative primary screening with standard experimental set-up, where 16 commercially available anti-cancer drugs have been tested on five different EGFP expressing cell lines (HeLa, KB, A20, Ramos and Jurkat) in 96-well microtiter plates is shown in FIG. 2. Differential susceptibility regarding induction of apoptosis and/or necrosis after treatement with 5-Fluorouracil (5-FU), Gemzar, Methotrexate, Eloxantin, Detimedac, Endoxan, Paraplatin, Navelbine, Velbe, Taxotere, Taxol, Adriblastin, Bleomycin, Campto, Etopophos and Farmorubicin is shown. Measurements after 24 h and 48 h were performed with a fluorescence microplate reader, which measures the overall fluorescence activity in a single well. Used compound concentrations are indicated by a fraction of the original concentration.
The setting of a cut-off value, corresponding to 0.8 in this case, allows the clear discrimination between two main groups of different activities. […] According to these intermediate values between 0 and 0.8 measured by a fluorescence microplate reader, it can hardly be discriminated between the subpopulations of apoptotic and necrotic cells within the same well. […]
Immediately after the addition of the compounds to the cells the zero fluorescence value (t=0 h) was determined by using a fluorescence microplate reader in order to be able to normalize the fluorescence activities. […]

[2] = system: HeLa cells; assay: Secondary screening: FACS analysis discriminating apoptotic and necrotic activity of anti-cancer drugs; details: for necrotic activity (FACS histograms): necrosis evident after exposure longer than 24 h, followed up to 48 h, Navelbine, Velbe, Campto 1/1000 diluted, Adriblastin 1/2000 diluted
Excerpt: For this purpose HeLa cells have been treated with typical anti-cancer drugs of different mode of actions. Navelbine and Velbe, two typical representatives of microtubules interfering drugs and Adriblastin and Campto, topo-isomerase inhibitors, which interfere with DNA synthesis.
Arrows indicate regions with either necrotic cells (left arrow) or apoptotic cells (middle arrow) or proliferating/living cells (right arrow). […] This fact became evident after exposure of the cells for longer than 24 h.
HeLa cells have been treated with typical anti-cancer drugs of different mode of actions. Navelbine and Velbe, two typical representatives of microtubules interfering drugs and Adriblastin and Campto, topo-isomerase inhibitor, which interfere with DNA synthesis. Histograms of FACS analysis of cells treated either with Navelbine (1/1000 diluted), Velbe (1/1000 diluted), Adriblastin (1/2000 diluted) and Campto (1/1000 diluted) are shown in FIG. 4. Arrows indicate regions with either necrotic cells (left arrow), apoptotic cells (middle arrow) and proliferating cells (right arrow). […] This fact became evident after exposure of the cells for longer than 24 h.

[3] = system: JurkatGFP cells; assay: Anti-apoptotic activity after induction of apoptosis by serially diluted soluble FasL, fluorescence microplate reader; details: 24 h incubation, compared with control peptide zFA
Excerpt: The activity of an anti-apoptotic compound, e.g. the pan caspase inhibitor zVADfmk, has been tested on JurkatGFP cells after induction of apoptosis by serially diluted soluble FasL and measured by a fluorescence microplate reader. […] The bars indicate standard deviations, which have been determined by measuring 6 single values for each datapoint.

| Compound | necrotic activity (FACS histograms) [2] | further results |
| --- | --- | --- |
| COc1cccc2c1C(=O)c1c(O)c3c(c(O)c1C2=O)C[C@@](O)(C(=O)CO)C[C@@H]3O[C@H]1C[C@H](N)[C@H](O)[C@H](C)O1 [Adriblastin] | do not show any tendency for necrotic activity | relative fluorescence activity (intermediate value, cut-off 0.8) ([1]; highest concentration 1/5 k of original concentration): 0.53; apoptotic activity (FACS histograms) ([2]; single-cell flow cytometry): only induce apoptosis |
| CCc1c2c(nc3ccc(OC(=O)N4CCC(N5CCCCC5)CC4)cc13)-c1cc3c(c(=O)n1C2)COC(=O)[C@]3(O)CC [Campto] | do not show any tendency for necrotic activity | – |
| CCC1=C[C@@H]2CN(C1)Cc1c([nH]c3ccccc13)[C@@](C(=O)OC)(c1cc3c(cc1OC)N(C)[C@H]1[C@@](O)(C(=O)OC)[C@H](OC(C)=O)[C@]4(CC)C=CCN5CC[C@]31[C@@H]54)C2 [Navelbine] | strong tendency to induce necrosis | relative fluorescence activity (intermediate value, cut-off 0.8) ([1]; highest concentration 1/10 k of original concentration): 0.49 |
| CC[C@]1(O)C[C@@H]2CN(CCc3c([nH]c4ccccc34)[C@@](C(=O)OC)(c3cc4c(cc3OC)N(C)[C@H]3[C@@](O)(C(=O)OC)[C@H](OC(C)=O)[C@]5(CC)C=CCN6CC[C@]43[C@@H]65)C2)C1 [Velbe] | strong tendency to induce necrosis | – |
| COC(=O)C[C@H](NC(=O)[C@H](C)NC(=O)[C@@H](NC(=O)OCc1ccccc1)C(C)C)C(=O)CF [zVAD] (Cbz-Val-Ala-Asp(OMe)-CH2F) | – | anti-apoptotic effect on the apoptotic activity of FasL [3]: clear inhibitory anti-apoptotic effect |
